Where two headings read alike, the source gives them in different places.
Columns and labels:
[1] = system: luminal, basal, claudin-low and ERBB2AMP breast cancer cell lines; assay: Associations of clinically relevant subtypes and response (non-parametric ANOVA or t-test on GI50 ranks); type: cell-based, human; conditions: Table 6; most sensitive subtype, FDR p<0.20
Procedure, shortened: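 Significance was set at FDR p<0.20 after combining p-values across three test sets. Subtype–response associations came from rank-based non-parametric ANOVA or t-tests on GI50. For three-class comparisons, post-hoc tests of each group against the rest identified the most sensitive group, with FDR correction.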

[2] = system: panel of 55 breast cancer cell lines; assay: Cell growth inhibition assay (Cell Titer Glo, 72 h, 9 doses; GI50, TGI, LC50); type: cell-based, human; conditions: Homo sapiens, read-out: GI50 (converted)

Cc1[nH]c2ccccc2c1CCNCc1ccc(/C=C/C(=O)NO)cc1 [LBH589]
Subtype specificity [1]: Luminal | GI50 ([2]; 600MPE cell line, censored GI50 values): 0.186 µM | GI50 ([2]; AU565, AU565 cell line, censored GI50 values): 0.105 µM | GI50 ([2]; AU565, cell line AU565): 0.105 µM | GI50 ([2]; BT-20, BT20 cell line, censored GI50 values): 0.389 µM | GI50 ([2]; BT-20, cell line BT20): 0.389 µM | GI50 ([2]; BT-474, BT474 cell line, censored GI50 values): 0.0347 µM | GI50 ([2]; BT-474, cell line BT474): 0.0347 µM | GI50 ([2]; BT-483, BT483 cell line, censored GI50 values): 0.0724 µM | GI50 ([2]; BT-483, cell line BT483): 0.0724 µM | GI50 ([2]; CAMA-1, CAMA1 cell line, censored GI50 values): 0.0617 µM | GI50 ([2]; CAMA-1, cell line CAMA1): 0.0617 µM | GI50 ([2]; HCC38, HCC38 cell line, censored GI50 values): 0.0355 µM | GI50 ([2]; HCC38, cell line HCC38): 0.0355 µM | GI50 ([2]; HCC70, HCC70 cell line, censored GI50 values): 0.0776 µM | GI50 ([2]; HCC70, cell line HCC70): 0.0776 µM | GI50 ([2]; HCC1143, HCC1143 cell line, censored GI50 values): 0.0832 µM | GI50 ([2]; HCC1143, cell line HCC1143): 0.0832 µM | GI50 ([2]; HCC1187, HCC1187 cell line, censored GI50 values): 0.174 µM | GI50 ([2]; HCC1187, cell line HCC1187): 0.174 µM | GI50 ([2]; HCC1419, HCC1419 cell line, censored GI50 values): 0.0589 µM | GI50 ([2]; HCC1419, cell line HCC1419): 0.0589 µM | GI50 ([2]; HCC1428, HCC1428 cell line, censored GI50 values): 0.135 µM | GI50 ([2]; HCC1428, cell line HCC1428): 0.135 µM | GI50 ([2]; HCC1500, HCC1500 cell line, censored GI50 values): 0.162 µM | GI50 ([2]; HCC1500, cell line HCC1500): 0.162 µM | GI50 ([2]; HCC1806, HCC1806 cell line, censored GI50 values): 0.151 µM | GI50 ([2]; HCC1806, cell line HCC1806): 0.151 µM | GI50 ([2]; HCC1937, HCC1937 cell line, censored GI50 values): 0.191 µM | GI50 ([2]; HCC1937, cell line HCC1937): 0.191 µM | GI50 ([2]; HCC1954, HCC1954 cell line, censored GI50 values): 0.372 µM | GI50 ([2]; HCC1954, cell line HCC1954): 0.372 µM | GI50 ([2]; HCC2185 cell line, censored GI50 values): 0.0692 µM | GI50 ([2]; HCC3153 cell line, censored GI50 values): 0.295 µM | GI50 ([2]; MCF7, MCF7 cell line, censored GI50 values): 0.0794 µM | GI50 ([2]; MCF7, cell line MCF7): 0.0794 µM | GI50 ([2]; MDA-MB-134-VI, MDAMB134VI cell line, censored GI50 values): 0.0661 µM | GI50 ([2]; MDA-MB-175-VII, MDAMB175VII cell line, censored GI50 values): 0.389 µM | GI50 ([2]; MDA-MB-361, MDAMB361 cell line, censored GI50 values): 0.0501 µM | GI50 ([2]; MDA-MB-361, cell line MDAMB361): 0.0501 µM | GI50 ([2]; MDA-MB-415, MDAMB415 cell line, censored GI50 values): 0.0398 µM | GI50 ([2]; MDA-MB-415, cell line MDAMB415): 0.0398 µM | GI50 ([2]; MDA-MB-436, MDAMB436 cell line, censored GI50 values): 0.251 µM | GI50 ([2]; MDA-MB-436, cell line MDAMB436): 0.251 µM | GI50 ([2]; MDA-MB-453, MDAMB453 cell line, censored GI50 values): 0.049 µM | GI50 ([2]; MDA-MB-453, cell line MDAMB453): 0.049 µM | GI50 ([2]; MDA-MB-468, MDAMB468 cell line, censored GI50 values): 0.234 µM | GI50 ([2]; MDA-MB-468, cell line MDAMB468): 0.234 µM | GI50 ([2]; SK-BR-3, SKBR3 cell line, censored GI50 values): 0.055 µM | GI50 ([2]; SK-BR-3, cell line SKBR3): 0.055 µM | GI50 ([2]; SUM52PE, SUM52PE cell line, censored GI50 values): 0.17 µM | GI50 ([2]; SUM52PE, cell line SUM52PE): 0.17 µM | GI50 ([2]; SUM149PT, SUM149PT cell line, censored GI50 values): 0.316 µM | GI50 ([2]; SUM149PT, cell line SUM149PT): 0.316 µM | GI50 ([2]; SUM185PE, SUM185PE cell line, censored GI50 values): 0.0776 µM | GI50 ([2]; SUM185PE, cell line SUM185PE): 0.0776 µM | GI50 ([2]; SUM1315MO2, SUM1315MO2 cell line, censored GI50 values): 0.251 µM | GI50 ([2]; SUM-159-PT, SUM159PT cell line, censored GI50 values): 0.132 µM | GI50 ([2]; SUM-159-PT, cell line SUM159PT): 0.132 µM | GI50 ([2]; T47D, T47D cell line, censored GI50 values): 0.151 µM | GI50 ([2]; T47D, cell line T47D): 0.151 µM | GI50 ([2]; UACC-812, UACC812 cell line, censored GI50 values): 0.129 µM | GI50 ([2]; UACC-812, cell line UACC812): 0.129 µM | GI50 ([2]; ZR-75-1, ZR751 cell line, censored GI50 values): 0.195 µM | GI50 ([2]; ZR-75-1, cell line ZR751): 0.195 µM | GI50 ([2]; ZR-75B, ZR75B cell line, censored GI50 values): 0.0832 µM | GI50 ([2]; ZR-75B, cell line ZR75B): 0.0832 µM | GI50 ([2]; cell line 600MPE): 0.186 µM | GI50 ([2]; cell line HCC2185): 0.0692 µM | GI50 ([2]; cell line HCC3153): 0.295 µM | GI50 ([2]; cell line MDAMB134V): 0.0661 µM | GI50 ([2]; cell line MDAMB175V): 0.389 µM | GI50 ([2]; cell line SUM1315MO): 0.251 µM
